Our source for the TGI and GI50 values is PubChem BioAssay (NCI).

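In this assay, cells in 96-well plates receive the compound at five concentrations for 48 hours. Endpoints are linearly interpolated between the surrounding concentrations. GI50: concentration for 50% inhibition of growth. TGI denotes the concentration required for complete inhibition of growth.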 A value given as a limit tells only on which side of the number the result lay.

The subject of one assay is SR leukemia. As to the kind of experiment: NCI-60 cell line screen, 48 h.
The molecule `O=[N+]([O-])c1ccc(NSc2ccccc2)cc1` gave a TGI of 63.2 µM.
The molecule `Cc1c(C(=O)/C=C/c2cccc3ccccc23)[n+](=O)c2ccccc2n1[O-]` yielded a TGI of 38.2 µM.
Still for that read-out and setting: the same measure for `CC(=O)/C=C/c1cccc(N=S)c1`: more than 100 µM.
Same read-out and setting: as for `O=C1/C(=C/c2ccccc2)CN(C(=O)Oc2ccc(Cl)cc2)C/C1=C\c1ccccc1`, the figure is 4.33 µM.
Same read-out and setting: the same measure for `CC1=C[C@@H]2Cc3occc3C(C)(C)[C@@H]2CC1`: 32.7 µM.
On to `CC1=C2[C@@H](CC1)[C@]1(C)O[C@@](C(C)C)(C[C@H]1OC(=O)[C@H](C)O)[C@H]2OC(=O)/C=C/c1ccccc1`, for which the GI50 was 10.3 µM and the TGI worked out at 37.5 µM.
On to `CN(C)c1ccc2c(c1)oc(=O)c1ccccc12`, for which the TGI was 21.5 µM.
For the molecule `CN1CCN(Cc2ccc(NC(=O)c3cncc(C#Cc4cnc(N)c5ccccc45)c3)cc2C(F)(F)F)CC1`, the GI50 was 0.157 µM and the TGI amounted to 6.63 µM.
For `NS(=O)(=O)c1ccc(-n2nc(-c3ccc(Br)cc3)ccc2=O)cc1`, in that order: 8.85 µM and more than 10 µM.
Turning to `S=C1NCCN1C1=Nc2ccccc2CO1`, the GI50 was more than 100 µM and the TGI is more than 100 µM.

The subject of the next assay is SN12C renal. As to the kind of experiment: NCI-60 cell line screen, 48 h.
`CC(=O)OCCc1cccnc1/C=N/O` returned a TGI of more than 100 µM.
As to `Cc1c(Cl)cccc1Nc1ncccc1C(=O)O`, the GI50 was more than 100 µM and the TGI is more than 100 µM.
`CN(C)c1ccc(/C=C2\C[N+](C)(C)C/C(=C\c3ccc(N(C)C)cc3)C2=O)cc1` had a TGI of more than 78 µM.
`C#CC(C)(C)Oc1cc(O)c2c(=O)c3ccccc3n(C)c2c1`: the TGI was more than 100 µM.
The molecule `COc1cc2c(NCCCCCCO[N+](=O)[O-])ncnc2c(OC)c1OC` gave a TGI of more than 71.5 µM.
On the same count and under the same terms, as for `CN1CCCNCCN(CCc2ccccn2)CCCN(C)CC1`, the figure is more than 100 µM.
As for `N#Cc1cnn2ccn(C3OC(COC(=O)c4ccccc4)C(OC(=O)c4ccccc4)C3OC(=O)c3ccccc3)c12` (stereo not given), the TGI was more than 21.5 µM.
For the molecule `OC(c1cccc(C(F)(F)F)c1)c1cnccc1NC1CCCCCC1` (stereo not given), the GI50 is 1.87 µM and the TGI came to 4.08 µM.
For `N#Cc1c(O)c2c(c(O)c1C#N)C(=O)c1ccccc1C2=O` the same measures were 1.82 µM and 4.04 µM.
For `CN=C1NC(=O)/C(=C/c2ccc3ncccc3c2)S1`, in that order: 7.7 µM and more than 25 µM.
Molecule `O=[N+]([O-])c1ccc(NSc2ccccc2)cc1` displayed a TGI of 35.5 µM.
Still for that read-out and setting: as for `Cc1c(C(=O)/C=C/c2cccc3ccccc23)[n+](=O)c2ccccc2n1[O-]`, the figure is 29.8 µM; as for `CC(=O)/C=C/c1cccc(N=S)c1`, 87.2 µM; as for `O=C1/C(=C/c2ccccc2)CN(C(=O)Oc2ccc(Cl)cc2)C/C1=C\c1ccccc1`, 3.88 µM.
Same read-out and setting: as for `CC1=C[C@@H]2Cc3occc3C(C)(C)[C@@H]2CC1`, the figure is 29.8 µM.
`CC1=C2[C@@H](CC1)[C@]1(C)O[C@@](C(C)C)(C[C@H]1OC(=O)[C@H](C)O)[C@H]2OC(=O)/C=C/c1ccccc1`: the GI50 was 1.47 µM and the TGI was determined as 24.6 µM.
`CN(C)c1ccc2c(c1)oc(=O)c1ccccc12` gave a TGI of 25.8 µM.
In the case of `CN1CCN(Cc2ccc(NC(=O)c3cncc(C#Cc4cnc(N)c5ccccc45)c3)cc2C(F)(F)F)CC1`, the GI50 was 0.242 µM and the TGI was determined as 0.693 µM.
For `NS(=O)(=O)c1ccc(-n2nc(-c3ccc(Br)cc3)ccc2=O)cc1`, in that order: more than 10 µM and more than 10 µM.
For `S=C1NCCN1C1=Nc2ccccc2CO1` the same measures were more than 100 µM and more than 100 µM.

A further assay deals with HOP-92 NSCLC. As to the kind of experiment: NCI-60 cell line screen, 48 h.
For the molecule `CC(=O)OCCc1cccnc1/C=N/O`, the TGI is more than 100 µM.
In the case of `Cc1c(Cl)cccc1Nc1ncccc1C(=O)O`, the GI50 is 41.6 µM and the TGI is more than 100 µM.
`CN(C)c1ccc(/C=C2\C[N+](C)(C)C/C(=C\c3ccc(N(C)C)cc3)C2=O)cc1` had a TGI of 78.9 µM.
`C#CC(C)(C)Oc1cc(O)c2c(=O)c3ccccc3n(C)c2c1` gave a TGI of more than 100 µM.
As for `COc1cc2c(NCCCCCCO[N+](=O)[O-])ncnc2c(OC)c1OC`, the TGI was 47.1 µM.
Still for that read-out and setting: as for `CN1CCCNCCN(CCc2ccccn2)CCCN(C)CC1`, the figure is more than 100 µM; as for `N#Cc1cnn2ccn(C3OC(COC(=O)c4ccccc4)C(OC(=O)c4ccccc4)C3OC(=O)c3ccccc3)c12` (stereo not given), more than 31.6 µM.
For `OC(c1cccc(C(F)(F)F)c1)c1cnccc1NC1CCCCCC1` (stereo not given), the GI50 is 1.32 µM and the TGI was 3.88 µM.
For `N#Cc1c(O)c2c(c(O)c1C#N)C(=O)c1ccccc1C2=O` the same measures were 2.2 µM and 5.92 µM.
For `CN=C1NC(=O)/C(=C/c2ccc3ncccc3c2)S1` the same measures were 8.03 µM and more than 25 µM.
Regarding `O=[N+]([O-])c1ccc(NSc2ccccc2)cc1`, the TGI is more than 100 µM.
Turning to `Cc1c(C(=O)/C=C/c2cccc3ccccc23)[n+](=O)c2ccccc2n1[O-]`, the TGI was 22.5 µM.
`CC(=O)/C=C/c1cccc(N=S)c1` displayed a TGI of more than 100 µM.
On the same count and under the same terms, as for `O=C1/C(=C/c2ccccc2)CN(C(=O)Oc2ccc(Cl)cc2)C/C1=C\c1ccccc1`, the figure is 42.3 µM.
Turning to `CC1=C[C@@H]2Cc3occc3C(C)(C)[C@@H]2CC1`, the TGI was found to be 38.9 µM.
As to `CC1=C2[C@@H](CC1)[C@]1(C)O[C@@](C(C)C)(C[C@H]1OC(=O)[C@H](C)O)[C@H]2OC(=O)/C=C/c1ccccc1`, the GI50 was 5.95 µM and the TGI was found to be 19.4 µM.
On to `CN(C)c1ccc2c(c1)oc(=O)c1ccccc12`, for which the TGI is 30 µM.
On to `CN1CCN(Cc2ccc(NC(=O)c3cncc(C#Cc4cnc(N)c5ccccc45)c3)cc2C(F)(F)F)CC1`, for which the GI50 is 0.401 µM and the TGI was determined as 1.25 µM.
For `NS(=O)(=O)c1ccc(-n2nc(-c3ccc(Br)cc3)ccc2=O)cc1`, in that order: more than 10 µM and more than 10 µM.
For `S=C1NCCN1C1=Nc2ccccc2CO1`, in that order: more than 100 µM and more than 100 µM.
